Experimental data from patent US10787423B2, “Piperazine and piperidine derivatives, their synthesis and use thereof in inhibiting VDAC oligomerization, apoptosis and mitochondria dysfunction” (THE NATIONAL INSTITUTE FOR BIOTECHNOLOGY IN THE NEGEV LTD., priority 2015, dated 2020).

Columns and labels:
HEK-293 cells = assay: Selenite-induced apoptosis, annexin V-FITC/PI staining and FACS, HEK-293 cells; type: cell-based; conditions: Homo sapiens, HEK293, compound 2 h then selenite 15 μM 4 h, means±SD (n=3)
Description: The ability of the compounds of general Formulae (I), (Ia), (Ib), (Ic), (Id), (II) and (IIa) to inhibit apoptosis may be analyzed by annexin-V/propidium iodide (PI) staining and flow cytometry.
(§1) Cells, e.g. HeLa cells (2×10^5), untreated or treated with apoptosis-inducing reagents, were analyzed for apoptotic cell death using PI, annexin V-FITC and flow cytometer analysis. Cells were collected (1500×g for 10 min), washed, and resuspended in 200 μl binding buffer (10 mM HEPES/NaOH, pH 7.4, 140 mM NaCl, and 2.5 mM CaCl2). Annexin V-FITC was added according to the recommended Protocol (Enzo Life Sciences, Switzerland), and the cells were incubated in the dark for 15 min. Cells were then washed with binding buffer and resuspended in 200 μl binding buffer, to which PI was added immediately before flow cytometry analysis. At least 10,000 events were collected, recorded on a dot plot, and analyzed by the FACSCalibur™ flow cytometer software (BD Biosciences, Franklin Lakes, N.J.).
b. Additionally, the inhibition of selenite-induced apoptosis by the compounds as analyzed using annexin V-FITC/PI staining and FACS, presented in the FIG. 15c.
d. IC50 values of the tested compounds were derived from the obtained data. The results shown correspond to means±SD (n=3).

purified VDAC1 = target: T1, purified VDAC1 (Rattus norvegicus, UniProt Q9Z2L0); assay: Microscale thermophoresis (MST) binding to purified VDAC1; conditions: MST, purified VDAC1 133 nM, 20 min incubation; means±SD (n=3); read-out: VDAC1 binding affinities
T1 construct: rat liver mitochondria (5 mg/ml) in 10 mM Tris-HCl, pH 7.2, were incubated with 2% LDAO; from tissue; host or cells: rat liver mitochondria

purified rat VDAC1 = target: T2, purified rat VDAC1 (Rattus norvegicus, UniProt Q9Z2L0); assay: VDAC1 channel conductance in planar lipid bilayer; type: biochemical; conditions: for IC50 / Max Inhibition (maximal reduction in channel conductance): planar lipid bilayer, measured at +10 mV and −10 mV
T2 construct: from tissue; host or cells: rat liver mitochondria
Text: The direct interaction between VDAC and the compounds of general Formulae (I), (Ia), (Ib), (Ic), (Id), (II) and (IIa), especially the specific compounds of Formulae 1, 2, 3, 10 and 11, may be measured by assessing VDAC channel conductance, following its reconstitution into a planar lipid bilayer (PLB). The compounds of the general Formulae (I), (Ia), (Ib), (Ic), (Id), (II) and (IIa), interact with VDAC and reduce its channel conductance. To obtain quantitative parameters of this interaction and derive a dissociation constant, e.g. a microscale thermophoresis (MST) interaction assay may be performed. In this manner, dissociation values are derived from the curves showing the affinity of the compounds of the invention to VDAC.
Briefly, rat liver mitochondria (5 mg/ml) in 10 mM Tris-HCl, pH 7.2, were incubated with 2% LDAO at 0° C. for 20 min, followed by centrifugation (30 min, 14,000 g) and the obtained supernatant was loaded onto a dry celite:hydroxyapatite (2:1) column. VDAC1 was eluted with a solution containing 2% LDAO, 10 mM Tris-HCl, pH 7.2, 50 mM NaCl, and 20 to 22 mM NaH2PO4, with VDAC1 detection by Coomassie blue staining. The VDAC1-containing fractions were dialyzed against 10 mM Tris-HCl, pH 7.2, and subjected to a second chromatography step on a carboxymethyl-cellulose (CMC) column from which VDAC1 was eluted with a solution containing 10 mM Tris-HCl, pH 7.2, 0.1% LDAO and 500 mM NaCl, detected as above. The VDAC1-containing fractions were collected and used for VDAC1 channel conductance and MST assays.
The reconstitution of purified rat VDAC1 into a planar lipid bilayer (PLB) and subsequent single and multiple channel current recordings and data analysis were carried out as follows. Briefly, the PLB was prepared from soybean asolectin dissolved in n-decane (30 mg/ml). Purified VDAC1 (1 ng) was added to the chamber defined as the cis side containing 1 M NaCl, 10 mM Hepes, pH 7.4. Currents were recorded under voltage-clamp using a Bilayer Clamp BC-535B amplifier (Warner Instrument, Hamden, Conn.). The currents, measured with respect to the trans side of the membrane (ground), were low-pass-filtered at 1 kHz and digitized online using a Digidata1440-interface board and pClampex 10.2 software (Axon Instruments, Union City, Calif.).
VDAC1 was purified as described above in Methods (VDAC1 purification). Purified VDAC1 was reconstituted into a planar lipid bilayer (PLB) membrane and currents through VDAC1, in response to a voltage steps from 0 to +10 mV, from 0 to −10 mV, from 0 to +40 mV, and from 0 to −40 mV, were recorded before and 15 min after the addition of 20 μM of the compound of Formula 3 (VBIT-12).
Solid circles indicate conductance without VBIT-12, open circles with 20 μM VBIT-12.
Further, the VDAC1 channel conductance was measured with the increasing concentrations of VBIT-12, or of compound of Formula 1 (VBIT-4). Concentration dependence of VBIT-12 reducing VDAC1 channel conductance was measured at +10 my and at −10 mV.

HeLa cells = assay: Selenite-induced cell death in HeLa cells, PI staining and flow cytometry; type: cell-based
Description: as §1
HeLa cells were incubated with varying concentrations (2-20 μM) of racemic compound of Formula 1 (VBIT-4) and of the enantiomers of compound of Formula 1 (VBIT-4-1 and VBIT-4-2) for 1 hour, and then with or without selenite (25 μM, 3 hours). Cells were harvested and assayed for apoptotic cell death, using PI staining and FACS analysis. The results shown in the FIG. 14b correspond to means±SD (n=3).
Cells (2.5 mg/ml) were washed with and resuspended in PBS, pH 8.3 and incubated with membrane-permeable cross-linker EGS (250 μM) at 30° C. for 15 min and then subjected to SDS-PAGE and immunoblotting using anti-VDAC1 antibodies. Several anti-VDAC1 antibody-labeled protein bands were obtained upon exposure to the apoptosis stimuli that are correspond to VDAC1 dimers, trimers, tetramers and multimers. Cell death as induced by selenite and inhibited by the compound of Formula 3 (VBIT-12) or compound of Formula 11 (DIV00781) is shown (FIG. 21B), with closed circles corresponding to the compound of Formula 3 and open circles corresponding to the compound of Formula 11. Cell death was analyzed using propidium iodide (PI) staining and flow cytometry.

T2 sequence (Q9Z2L0 whole entry): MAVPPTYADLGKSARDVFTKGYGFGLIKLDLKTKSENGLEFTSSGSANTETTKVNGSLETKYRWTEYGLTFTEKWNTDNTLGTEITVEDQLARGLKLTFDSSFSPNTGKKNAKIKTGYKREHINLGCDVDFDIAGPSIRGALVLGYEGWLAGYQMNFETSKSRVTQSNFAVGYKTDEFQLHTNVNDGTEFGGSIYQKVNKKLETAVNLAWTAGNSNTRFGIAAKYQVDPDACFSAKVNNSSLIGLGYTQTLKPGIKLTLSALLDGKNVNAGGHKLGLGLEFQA
T1 sequence (Q9Z2L0 whole entry): as above

| SMILES | IC50 (HEK-293 cells) [µM] | Kd (purified VDAC1) [µM] | IC50 (purified rat VDAC1) [µM] | Max Inhibition (maximal reduction in channel conductance) (purified rat VDAC1) [%] | apoptotic cell death (HeLa cells; 2-20 μM 1 hour, then selenite 25 μM 3 hours) | decrease in maximal channel conductance relative to VBIT-4 (purified rat VDAC1) | VDAC1 conductance in multi-channel experiments as function of voltage (purified rat VDAC1; 20 μM) | VDAC1 channel conductance (purified rat VDAC1; 20 μM, 15 min after addition, voltage steps 0 to ±10 mV and ±40 mV) | affinity to VDAC1 relative to VBIT-4 (purified rat VDAC1; from concentration dependence of channel conductance) | cell death as induced by selenite (HeLa cells; 22 h with selenite 8 μM and increasing concentrations) |
| --- | --- | --- | --- | --- | --- | --- | --- | --- | --- | --- |
| O=C(CC(CO)N1CCN(c2ccc(OC(F)(F)F)cc2)CC1)Nc1ccc(Cl)cc1 (racemic) [Formula 1, N-(4-chlorophenyl)-4-hydroxy-3-(4-(4-(trifluoromethoxy)phenyl)-piperazin-1-yl)butanamide] | 2.9 ± 0.12 | 17 ± 5.3 | 15 | 50 | Inhibit Apoptotic Cell Death | – | – | – | – | – |
| O=C(O)CNC(=O)C1(Nc2ccccc2)CCN(Cc2cccc3ccccc23)CC1 [Formula 3] | – | – | 5 | 80 | – | higher decrease in the maximal channel conductance | stabilizing VDAC1 at a low conductance state at all voltages tested | Channel conductance was reduced and the channel was stabilized in a low conducting state | higher affinity than VBIT-4 | inhibited |
